In US11478551B2, “Long-acting adrenomedullin derivative” (University of Miyazaki, priority 2015, dated 2022):

Legend:
[1] = test system: spontaneously hypertensive rat (SHR); assay: Effect of suppressing increase in blood pressure in spontaneously hypertensive rat (SHR) fed high-salt diet; assay type: in vivo; conditions: 336 μg/100 μL subcutaneous single dose, SHR on high-salt diet (8% NaCl), 9 days after administration
Experimental: Each 8-week-old male SHR (approximately 200 g) was fed with a high-salt diet (8% NaCl). The compound (8) was administered in a form dissolved in physiological saline at the time of feeding with the high-salt diet. 100 μL of physiological saline was subcutaneously administered in a single dose to each male SHR (approximately 200 g) in the same condition as above in a control group.

[2] = test system: Wistar rat; assay: Blood pressure-lowering effect, single intravenous dose in rat under anesthesia; assay type: in vivo; conditions: 1 nmol/kg, single dose into the vein
Experimental: Each compound prepared in experiments I-1 and II-1 or full-length AM was administered in a single dose of 1 nmol/kg into the vein of each rat under anesthesia, and change in the blood pressure of the rat was observed. Each 11 to 14-week-old male Wistar rat was anesthetized by the inhalation of isoflurane. After tracheotomy, inhalational anesthesia was controlled at an isoflurane concentration of 1.5 to 2.5% and a flow rate of 0.6 to 0.8 L/min. The right jugular vein was isolated from the rat, and a catheter tube corresponding to 26 G was inserted thereto. Next, the left carotid artery was isolated from the rat thus treated, and a catheter tube corresponding to 23 G was inserted thereto. From the catheter tube of the right jugular vein, a physiological saline-heparin solution (physiological saline: 100 mL; heparin: 1000 units) was infused at 2.4 mL/hr. […] The catheter inserted in the carotid artery was connected to a pressure transducer. […] In the diagram, the ordinate depicts a difference obtained by subtracting the average blood pressure before the administration of each drug from the average blood pressure at the time of the administration of each drug.

[3] = test system: TNBS-induced colitis models; assay: 2,4,6-trinitrobenzenesulfonic acid (TNBS)-induced colitis model; assay type: in vivo; conditions: 1 nmol/kg subcutaneous, rat
Experimental: 7-week-old male Wistar rats were acclimatized for 1 week. […] Fasting was carried out for 24 hours concurrently with the subcutaneous administration to remove stool from the body. Colitis models were prepared by procedures described below. The concentration of TNBS (Nacalai Tesque, Inc.) was adjusted to 30 mg/500 μL (in a 50% aqueous ethanol solution). 50 mg of pentobarbital was intraperitoneally administered, and a polyethylene catheter was inserted by 8 cm from the anus under anesthesia while slowly rotated, followed by injection of 500 μL of the drug solution (day 1). Then, the inverted state was maintained for 2 minutes. The body weight and the form of diarrhea were evaluated every day. 14 days later, 50 mg of pentobarbital was intraperitoneally administered, and blood collection from the heart and excision of the large intestine were carried out under anesthesia. The length and weight of the excised intestinal tract were measured and compared between the groups. […] In the diagram, (a) depicts the day on which the compound (8) or physiological saline was subcutaneously administered and fasting was started, and (b) depicts the day on which TNBS was administered.

[4] = Measurement over time of AM concentration in plasma after subcutaneous administration (RIA); assay type: in vivo; conditions: 10 nmol/kg subcutaneous single dose, rat
Experimental: 1 day, 7 days and 10 days after the start of the administration, 50 mg of pentobarbital was intraperitoneally administered, and 300 μL of blood was collected each time from the tail vain under anesthesia. Immediately, 300 μg of EDTA-2Na and […] of aprotinin were added to the obtained blood sample, and the mixture was centrifuged under conditions involving 10 minutes and 3000 rpm to obtain plasma. The AM concentration in the plasma of each sample was measured by radioimmunoassay (RIA) (Kitamura K, Ichiki Y, Tanaka M et al., Immunoreactive adrenomedullin in human plasma. FEBS Lett., vol. 341, p. 288-90, 1994).
The compound (37) prepared in experiment III-1 was subcutaneously administered in a single dose of 30 nmol/kg to each rat, and time-dependent change in the concentration in blood of the adrenomedullin derivative was observed. The compound (37) dissolved in physiological saline was subcutaneously administered to each 7- to 8-week-old male Wistar rat (approximately 250 g). 1 day, 2 days, 4 days, 7 days and 9 days after the start of the administration, 50 mg of pentobarbital was intraperitoneally administered, and 300 μL of blood was collected each time from the tail vain under anesthesia. Immediately, 300 μg of EDTA-2Na and […] of aprotinin were added to the obtained blood sample, and the mixture was centrifuged under conditions involving 10 minutes and 3000 rpm to obtain plasma. The AM concentration in the plasma of each sample was measured by RIA.

[5] = test system: adjuvant-induced arthritis models; assay: Adjuvant-induced arthritis model; assay type: in vivo; conditions: 1 and 10 nmol/kg subcutaneous, rat
Experimental: The compound (8) was subcutaneously administered to each rat. […] Physiological saline was administered as a vehicle to a control group. The paw volumes and swelling rates of the right and left legs were measured on days 0 (day before the adjuvant administration), 4, 7, 10 and 14 using a paw volume measurement apparatus (MK-550, Muromachi Kikai Co., Ltd.). Inflammation scores on days 0 (day before the adjuvant administration), 4, 7, 10 and 14 were evaluated on the basis of the scores shown in Table 5.

[6] = test system: wound models; assay: Wound model; assay type: in vivo, mouse; conditions: 1 nmol/kg subcutaneous single dose, BALB/c-nu/nu mice
Experimental: 5-week-old male BALB/c-nu/nu mice (Charles River Laboratories Japan, Inc.) were purchased and acclimatized for 1 week. Then, 5 mg of pentobarbital was intraperitoneally administered to each mouse for anesthesia. The skin was disinfected using ethanol for disinfection. The skin of the back was pulled with fingers with the mouse in the lateral position, and pressed and cut with a round knife for skin biopsy (disposable biopsy punch with plunger system) from one side toward the other side on a disinfected mat for drafting to prepare two defective injuries each having a diameter of 6 mm. […] Physiological saline was administered as a vehicle to a control group. A dressing was applied to cover the back including the wound sites. Change in the wound areas were observed over time.

[7] = test system: DSS-induced colitis models; assay: Dextran sodium sulfate (DSS)-induced colitis model; assay type: in vivo; conditions: mouse
Experimental: The compound (8) was subcutaneously administered to the back of each mouse. On the day following the administration (day 0), colitis model preparation was started by administration of 3% DSS as drinking water for 7 days. […] Physiological saline was administered as a vehicle to a control group. The body weight and the form of stool were evaluated on days 3, 5 and 7 counted from the start date of the DSS administration (day 0) on the basis of the scores shown in Table 4.

GL-2-branched CH3O-PEG (60k)-CH2-^αNH-(h.AM (1-52)) [Compound (8)]
increase in the blood pressure compared to the control group [1]: suppressed
decrease in the blood pressure immediately after the administration, as compared to compound (2) [2]: further suppressed
rapidly decreased blood pressure immediately after the administration [2]: not observed
pathological changes of the large intestine (autopsy report) [3]: evidently fewer
weight loss due to the development of colitis [3]: improved
decrease in the intestinal tract length of the large intestine compared to the vehicle control group ([3]; 14 days later): evidently suppressed
increase in the weight of the large intestine compared to the vehicle control group ([3]; 14 days later): evidently suppressed
level at time molar at 24 h ([4]; 1 day later): ≥ 2.6 nM
level at time molar at 24 h ([4]; 7 days later): ≥ 0.74 nM
level at time molar at 24 h ([4]; 10 days later): ≥ 0.28 nM
arthritis score (inflammation score) as compared to the vehicle control group [5]: significantly decreased
paw volume as compared to the vehicle control group [5]: significantly decreased
swelling rate as compared to the vehicle control group [5]: significantly decreased
reduction in the wound areas compared to the vehicle control group [6]: faster
wet weight of the intestinal tract as compared to the vehicle control group ([7]; 5 nmol/kg subcutaneous): tendency to decrease
length of the intestinal tract as compared to the vehicle control group ([7]; 25 nmol/kg subcutaneous): tendency to increase
total score (weight loss, stool consistency, bleeding/mucous and bloody stool) ([7]; 5 and 25 nmol/kg subcutaneous, 3% DSS): significant decrease
